In patent publication US20200399262A1, “COMPOUNDS FOR INHIBITING PROTEIN DEGRADATION AND METHODS OF USE THEREOF IN THE TREATMENT OF CANCER” (PI Therapeutics Ltd, priority 2018, published 2020):

Assays:
Assay in all cases: Cell viability panel, ATPlite 1Step
Type in all cases: cell-based
LNCaP FGC = details: Homo sapiens, Prostate carcinoma, 72 h exposure, read-out: Compound EC50
Protocol: (§1) Cell viability panel studies. Cells were diluted in the corresponding ATCC recommended medium and dispensed in a 384-well plate, depending on the cell line used, at a density of 200-6400 cells per well. For each used cell line, the optimal cell density was used. Compound was serially diluted and 8 concentration (0.04-32 μM) were added to the cells for 72 h exposure. At t=end, of ATPlite 1Step™ (PerkinElmer) were used to calculate cell viability. Cell lines marked with asterisk were seeded 24 h prior to treatment in 96-well plates at the density range of 5,000-40,000 cells/well, according to duplication rate, in RPMI 1640 medium containing 10% fetal bovine serum and 2 mM L-glutamine. Compounds were diluted from 10 mM DMSO stock and treatment was applied at the range of 0.04-1 μM. Following incubation at 37° C. for 48 hours with increasing concentrations of the compounds, viability was determined with CyQUANT® Direct Assay Kit (Invitrogen). Output intensities were normalized to values after treatment with DMSO alone, and EC50 values were calculated using the absorbance measurements [time zero, (Tz), growth control, (C), plus the test growth at the four drug concentration levels (Ti)] as follows: [(Ti−Tz)/(C−Tz)]×100 for concentrations for which Ti>/=Tz; [(Ti−Tz)/Tz]×100 for concentrations for which Ti−<Tz.

RPMI-7951 = details: Homo sapiens, Melanoma, 72 h exposure, read-out: Compound EC50
Protocol: as §1

J82 = details: Homo sapiens, Bladder carcinoma, 72 h exposure, read-out: Compound EC50
Protocol: as §1

PFSK-1 = details: Homo sapiens, Primitive neuroectodermal tumor, 72 h exposure, read-out: Compound EC50
Protocol: as §1

SHP-77 = details: Homo sapiens, SHP77, Small cell lung carcinoma, 72 h exposure, read-out: Compound EC50
Protocol: as §1

AU-565 = details: Homo sapiens, AU565, Breast adenocarcinoma, 72 h exposure, read-out: Compound EC50
Protocol: as §1

OVCAR-3 = details: Homo sapiens, High grade ovarian serous adenocarcinoma, 72 h exposure, read-out: Compound EC50
Protocol: as §1

A-498 = details: Homo sapiens, A498, Renal cell carcinoma, 72 h exposure, read-out: Compound EC50
Protocol: as §1

SNU-5 = details: Homo sapiens, Gastric carcinoma, 72 h exposure, read-out: Compound EC50
Protocol: as §1

A388 = details: Squamous cell carcinoma, 72 h exposure, read-out: Compound EC50
Protocol: as §1

TCCSUP = details: Homo sapiens, TCC-SUP, Bladder carcinoma, 72 h exposure, read-out: Compound EC50
Protocol: as §1

Jurkat E6.1 = details: Homo sapiens, T acute lymphoblastic leukemia, 72 h exposure, read-out: Compound EC50
Protocol: as §1

K-562 = details: Homo sapiens, K562, Chronic myelogenous leukemia, 72 h exposure, read-out: Compound EC50
Protocol: as §1

COLO 829 = details: Homo sapiens, Cutaneous melanoma, 72 h exposure, read-out: Compound EC50
Protocol: as §1

HuTu 80 = details: Homo sapiens, HuTu80, Duodenal adenocarcinoma, 72 h exposure, read-out: Compound EC50
Protocol: as §1

PC-3 = details: Homo sapiens, Prostate carcinoma, 72 h exposure, read-out: Compound EC50
Protocol: as §1

SW982 = details: Homo sapiens, Biphasic synovial sarcoma, 72 h exposure, read-out: Compound EC50
Protocol: as §1

RL95-2 = details: Homo sapiens, Endometrial adenosquamous carcinoma, 72 h exposure, read-out: Compound EC50
Protocol: as §1

HT = details: Homo sapiens, Diffuse large B-cell lymphoma, 72 h exposure, read-out: Compound EC50
Protocol: as §1

A375 = details: Homo sapiens, A-375, Amelanotic melanoma, 72 h exposure, read-out: Compound EC50
Protocol: as §1

SW837 = details: Homo sapiens, Rectal adenocarcinoma, 72 h exposure, read-out: Compound EC50
Protocol: as §1

SR = details: Homo sapiens, Anaplastic large cell lymphoma, 72 h exposure, read-out: Compound EC50
Protocol: as §1

AN3 CA = details: Homo sapiens, Endometrial adenocarcinoma, 72 h exposure, read-out: Compound EC50
Protocol: as §1

SJCRH30 = details: Alveolar rhabdomyosarcoma, 72 h exposure, read-out: Compound EC50
Protocol: as §1

SK-N-FI = details: Homo sapiens, Neuroblastoma, 72 h exposure, read-out: Compound EC50
Protocol: as §1

JAR = details: Gestational choriocarcinoma, 72 h exposure, read-out: Compound EC50
Protocol: as §1

U-118 MG = details: Homo sapiens, Astrocytoma, 72 h exposure, read-out: Compound EC50
Protocol: as §1

RL = details: Homo sapiens, Diffuse large B-cell lymphoma, 72 h exposure, read-out: Compound EC50
Protocol: as §1

NCI-H460 = details: Homo sapiens, Large cell lung carcinoma, 72 h exposure, read-out: Compound EC50
Protocol: as §1

Measured: EC50

CN(C)CCCS(=O)(=O)N1C/C(=C\c2ccc(C#N)cc2)C(=O)/C(=C/c2ccc(C#N)cc2)C1 [Compound AA]
< 300 nM: RPMI-7951 | PFSK-1 | AU-565 | A388 | TCCSUP | Jurkat E6.1 | K-562 | COLO 829 | HuTu 80 | SW982 | RL95-2 | HT | A375 | SR | AN3 CA | SJCRH30 | SK-N-FI | JAR | U-118 MG | RL | NCI-H460
300 to 1000 nM: LNCaP FGC | J82 | SHP-77 | OVCAR-3 | A-498 | SNU-5 | PC-3 | SW837
